Assay results as given in ChEMBL document CHEMBL3259563, “The discovery of potent and selective non-steroidal glucocorticoid receptor modulators, suitable for inhalation” (Bioorg Med Chem Lett, 2014).

Tests used:
[1] = Lipophilicity, log D of the compound at pH 7.4; assay type: physicochemical; settings: buffer
Glucocorticoid receptor = biological target: T1, Glucocorticoid receptor (Rattus norvegicus, UniProt P06536); test: Agonist activity at glucocorticoid receptor in rat PBMC assessed as inhibition of LPS-stimulated TNF-alpha release
T1 sequence (P06536 whole entry): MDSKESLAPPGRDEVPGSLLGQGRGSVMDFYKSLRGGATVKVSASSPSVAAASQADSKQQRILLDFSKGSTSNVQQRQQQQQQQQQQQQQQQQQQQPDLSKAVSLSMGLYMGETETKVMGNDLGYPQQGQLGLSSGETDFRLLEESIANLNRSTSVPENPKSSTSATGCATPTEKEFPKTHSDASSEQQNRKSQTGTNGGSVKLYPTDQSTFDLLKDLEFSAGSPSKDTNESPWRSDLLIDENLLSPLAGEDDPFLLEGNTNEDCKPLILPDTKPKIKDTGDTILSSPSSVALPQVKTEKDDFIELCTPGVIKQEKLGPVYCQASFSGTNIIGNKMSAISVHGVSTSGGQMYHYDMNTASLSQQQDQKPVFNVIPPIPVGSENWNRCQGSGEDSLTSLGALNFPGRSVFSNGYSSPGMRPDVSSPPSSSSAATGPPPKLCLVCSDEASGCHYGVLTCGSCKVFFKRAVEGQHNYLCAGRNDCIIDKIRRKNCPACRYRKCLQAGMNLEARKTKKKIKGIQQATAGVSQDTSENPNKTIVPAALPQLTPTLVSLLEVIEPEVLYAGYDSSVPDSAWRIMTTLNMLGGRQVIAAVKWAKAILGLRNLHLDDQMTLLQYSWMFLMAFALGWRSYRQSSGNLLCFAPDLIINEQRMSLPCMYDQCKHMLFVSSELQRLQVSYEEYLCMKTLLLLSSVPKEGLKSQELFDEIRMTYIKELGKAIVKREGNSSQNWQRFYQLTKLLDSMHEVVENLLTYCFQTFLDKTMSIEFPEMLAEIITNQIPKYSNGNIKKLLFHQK

Androgen receptor = biological target: T2, Androgen receptor (Homo sapiens, UniProt P10275); test: Binding affinity to androgen receptor (unknown origin)
T2 sequence (P10275 whole entry): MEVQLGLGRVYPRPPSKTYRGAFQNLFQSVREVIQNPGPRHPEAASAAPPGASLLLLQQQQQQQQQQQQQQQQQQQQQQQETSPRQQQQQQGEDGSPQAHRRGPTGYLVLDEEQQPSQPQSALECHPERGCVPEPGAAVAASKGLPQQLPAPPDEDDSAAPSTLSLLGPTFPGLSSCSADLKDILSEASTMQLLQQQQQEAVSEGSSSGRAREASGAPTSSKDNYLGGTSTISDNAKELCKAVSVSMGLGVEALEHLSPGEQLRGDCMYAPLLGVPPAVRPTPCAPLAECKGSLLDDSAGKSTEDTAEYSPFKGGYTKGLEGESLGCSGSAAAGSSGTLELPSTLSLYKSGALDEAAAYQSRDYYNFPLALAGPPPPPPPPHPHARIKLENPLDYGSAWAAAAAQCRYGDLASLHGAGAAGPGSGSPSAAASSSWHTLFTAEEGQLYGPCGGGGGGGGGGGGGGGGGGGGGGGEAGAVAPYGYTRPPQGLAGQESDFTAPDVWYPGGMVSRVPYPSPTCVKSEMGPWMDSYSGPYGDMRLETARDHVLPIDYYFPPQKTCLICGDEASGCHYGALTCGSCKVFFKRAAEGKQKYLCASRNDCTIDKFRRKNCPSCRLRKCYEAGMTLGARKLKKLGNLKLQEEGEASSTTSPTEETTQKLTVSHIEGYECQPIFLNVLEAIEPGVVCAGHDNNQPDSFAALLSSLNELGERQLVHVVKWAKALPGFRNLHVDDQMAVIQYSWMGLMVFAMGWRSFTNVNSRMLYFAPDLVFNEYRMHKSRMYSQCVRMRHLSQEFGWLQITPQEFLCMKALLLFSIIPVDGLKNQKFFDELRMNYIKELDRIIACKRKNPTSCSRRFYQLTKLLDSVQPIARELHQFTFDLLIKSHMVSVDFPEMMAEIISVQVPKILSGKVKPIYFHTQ

[2] = Thermodynamic solubility of the crystalline compound in 0.1 M phosphate buffer at pH 7.4 at 25 degC after 24 hrs; assay type: physicochemical; settings: read-out: Therm_solubility
Plasma = test: Fraction unbound in human plasma; assay type: ADME, cell-free
Hepatocyte [3] = test: Intrinsic clearance in rat hepatocytes; assay type: ADME, cell-based
Hepatocyte [4] = test: Intrinsic clearance in human hepatocytes; assay type: ADME, cell-based
Cytochrome P450 2D6 = Cytochrome P450 2D6 (Homo sapiens, UniProt P10635); test: Inhibition of CYP2D6 (unknown origin); assay type: ADME
Chain of Cytochrome P450 2D6 (P10635 whole entry): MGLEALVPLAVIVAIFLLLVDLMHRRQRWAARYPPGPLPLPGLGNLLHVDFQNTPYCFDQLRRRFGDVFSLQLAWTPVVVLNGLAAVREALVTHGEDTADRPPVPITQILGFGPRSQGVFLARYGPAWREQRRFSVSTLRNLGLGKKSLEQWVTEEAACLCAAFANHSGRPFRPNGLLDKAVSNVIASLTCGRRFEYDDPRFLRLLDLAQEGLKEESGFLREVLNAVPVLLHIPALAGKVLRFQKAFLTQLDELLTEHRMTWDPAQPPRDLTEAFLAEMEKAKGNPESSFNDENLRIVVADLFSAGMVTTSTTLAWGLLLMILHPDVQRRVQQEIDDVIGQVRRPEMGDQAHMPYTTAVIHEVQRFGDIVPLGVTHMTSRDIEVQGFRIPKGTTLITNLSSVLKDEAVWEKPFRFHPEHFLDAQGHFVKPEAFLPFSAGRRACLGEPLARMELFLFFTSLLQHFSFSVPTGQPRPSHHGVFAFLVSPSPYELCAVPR

Cytochrome P450 1A2 = biological target: T3, Cytochrome P450 1A2 (Homo sapiens, UniProt P05177); test: Inhibition of CYP1A2 (unknown origin); assay type: ADME
T3 sequence (P05177 whole entry): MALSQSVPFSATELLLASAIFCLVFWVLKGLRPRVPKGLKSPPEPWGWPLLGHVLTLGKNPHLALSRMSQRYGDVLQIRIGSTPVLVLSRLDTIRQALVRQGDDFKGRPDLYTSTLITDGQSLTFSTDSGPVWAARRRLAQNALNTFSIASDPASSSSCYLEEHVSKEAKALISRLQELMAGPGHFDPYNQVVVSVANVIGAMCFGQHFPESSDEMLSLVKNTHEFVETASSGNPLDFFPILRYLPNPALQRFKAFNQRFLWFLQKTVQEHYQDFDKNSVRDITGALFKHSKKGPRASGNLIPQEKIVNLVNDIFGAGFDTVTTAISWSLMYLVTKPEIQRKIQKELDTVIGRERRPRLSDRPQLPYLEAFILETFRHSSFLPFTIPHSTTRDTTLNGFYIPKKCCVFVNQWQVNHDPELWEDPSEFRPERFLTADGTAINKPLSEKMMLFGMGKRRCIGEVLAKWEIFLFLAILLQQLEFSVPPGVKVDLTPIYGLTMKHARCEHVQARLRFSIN

Cytochrome P450 2C19 = Cytochrome P450 2C19 (Homo sapiens, UniProt P33261); test: Inhibition of CYP2C19 (unknown origin); assay type: ADME
Chain of Cytochrome P450 2C19 (P33261 whole entry): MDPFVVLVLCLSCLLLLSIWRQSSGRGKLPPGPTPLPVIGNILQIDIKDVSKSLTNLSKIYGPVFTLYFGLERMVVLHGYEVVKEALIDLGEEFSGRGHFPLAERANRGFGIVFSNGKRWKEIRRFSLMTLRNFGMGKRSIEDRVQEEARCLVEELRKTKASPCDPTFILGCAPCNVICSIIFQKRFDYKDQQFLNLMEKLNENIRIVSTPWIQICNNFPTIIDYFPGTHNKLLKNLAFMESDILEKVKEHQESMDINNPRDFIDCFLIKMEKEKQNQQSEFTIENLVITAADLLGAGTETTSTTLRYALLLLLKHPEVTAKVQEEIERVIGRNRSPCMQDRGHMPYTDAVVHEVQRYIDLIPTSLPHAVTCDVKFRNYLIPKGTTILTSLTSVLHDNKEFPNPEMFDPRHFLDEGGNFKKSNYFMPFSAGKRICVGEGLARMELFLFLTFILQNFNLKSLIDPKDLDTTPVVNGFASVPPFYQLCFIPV

Cytochrome P450 3A4 = Cytochrome P450 3A4 (Homo sapiens, UniProt P08684); test: Inhibition of CYP3A4 (unknown origin); assay type: ADME
Chain of Cytochrome P450 3A4 (P08684 whole entry): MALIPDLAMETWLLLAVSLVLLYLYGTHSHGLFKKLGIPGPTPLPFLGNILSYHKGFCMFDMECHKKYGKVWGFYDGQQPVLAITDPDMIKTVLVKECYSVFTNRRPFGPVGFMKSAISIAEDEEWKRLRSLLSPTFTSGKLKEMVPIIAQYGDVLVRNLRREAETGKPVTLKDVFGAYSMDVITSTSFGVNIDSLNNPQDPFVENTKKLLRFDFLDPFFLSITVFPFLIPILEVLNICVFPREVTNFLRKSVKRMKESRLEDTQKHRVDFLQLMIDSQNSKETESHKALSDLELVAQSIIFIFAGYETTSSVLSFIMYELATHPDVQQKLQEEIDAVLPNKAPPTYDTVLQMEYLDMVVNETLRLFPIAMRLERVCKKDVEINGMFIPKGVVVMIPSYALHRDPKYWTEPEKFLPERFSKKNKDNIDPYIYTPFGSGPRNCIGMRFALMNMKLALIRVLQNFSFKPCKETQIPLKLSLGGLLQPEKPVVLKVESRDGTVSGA

Cytochrome P450 2C9 = Cytochrome P450 2C9 (Homo sapiens, UniProt P11712); test: Inhibition of CYP2C9 (unknown origin); assay type: ADME
Chain of Cytochrome P450 2C9 (P11712 whole entry): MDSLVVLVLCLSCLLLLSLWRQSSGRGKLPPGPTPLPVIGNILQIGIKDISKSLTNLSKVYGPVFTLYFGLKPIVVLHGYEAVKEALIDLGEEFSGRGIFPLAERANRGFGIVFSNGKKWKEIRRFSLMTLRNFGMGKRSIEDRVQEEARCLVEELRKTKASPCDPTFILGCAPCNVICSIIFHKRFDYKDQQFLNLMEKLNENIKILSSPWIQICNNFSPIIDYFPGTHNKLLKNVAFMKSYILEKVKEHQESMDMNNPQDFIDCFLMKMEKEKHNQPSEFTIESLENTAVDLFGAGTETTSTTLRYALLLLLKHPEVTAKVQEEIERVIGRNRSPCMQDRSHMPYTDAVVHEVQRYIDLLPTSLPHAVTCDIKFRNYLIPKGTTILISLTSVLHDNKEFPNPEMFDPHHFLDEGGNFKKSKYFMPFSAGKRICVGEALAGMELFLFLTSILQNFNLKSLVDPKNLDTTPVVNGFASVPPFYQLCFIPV

Lung = test: Drug uptake in intratracheally dosed rat lung after 24 hrs; assay type: ADME, organism-based; settings: in vivo, inhaled_or_intranasal
Rattus norvegicus [5] = test: Antiinflammatory activity in rat assessed as inhibition of LPS-induced leukocyte influx to broncho-alveolar lavage fluid at 10 ug/kg, administered intratracheally 2 hrs prior to LPS challenge measured after 4 hrs relative to control; assay type: functional; settings: inhaled or nasal
Rattus norvegicus [6] = test: Antiinflammatory activity in rat assessed as inhibition of LPS-induced leukocyte influx to broncho-alveolar lavage fluid at 30 ug/kg, administered intratracheally 2 hrs prior to LPS challenge measured after 4 hrs relative to control; assay type: functional; settings: inhaled or nasal
Rattus norvegicus [7] = test: Antiinflammatory activity in rat assessed as inhibition of LPS-induced leukocyte influx to broncho-alveolar lavage fluid at 100 ug/kg, administered intratracheally 2 hrs prior to LPS challenge measured after 4 hrs relative to control; assay type: functional; settings: inhaled or nasal
Rattus norvegicus [8] = test: Antiinflammatory activity in rat assessed as inhibition of LPS-induced lung edema at 10 ug/kg, administered intratracheally 2 hrs prior to LPS challenge measured after 4 hrs relative to control; assay type: functional; settings: inhaled or nasal
Rattus norvegicus [9] = test: Antiinflammatory activity in rat assessed as inhibition of LPS-induced lung edema at 30 ug/kg, administered intratracheally 2 hrs prior to LPS challenge measured after 4 hrs relative to control; assay type: functional; settings: inhaled or nasal
Rattus norvegicus [10] = test: Antiinflammatory activity in rat assessed as inhibition of LPS-induced lung edema at 100 ug/kg, administered intratracheally 2 hrs prior to LPS challenge measured after 4 hrs relative to control; assay type: functional; settings: inhaled or nasal
[11] = Thermodynamic solubility of the amorphous compound in 0.1 M phosphate buffer at pH 7.4 at 25 degC after 24 hrs; assay type: physicochemical; settings: read-out: Therm_solubility
hERG (KCNH2) = hERG (KCNH2) (Homo sapiens, UniProt Q12809); test: Inhibition of human ERG channel at 50 uM
Chain of hERG (KCNH2) (Q12809 whole entry): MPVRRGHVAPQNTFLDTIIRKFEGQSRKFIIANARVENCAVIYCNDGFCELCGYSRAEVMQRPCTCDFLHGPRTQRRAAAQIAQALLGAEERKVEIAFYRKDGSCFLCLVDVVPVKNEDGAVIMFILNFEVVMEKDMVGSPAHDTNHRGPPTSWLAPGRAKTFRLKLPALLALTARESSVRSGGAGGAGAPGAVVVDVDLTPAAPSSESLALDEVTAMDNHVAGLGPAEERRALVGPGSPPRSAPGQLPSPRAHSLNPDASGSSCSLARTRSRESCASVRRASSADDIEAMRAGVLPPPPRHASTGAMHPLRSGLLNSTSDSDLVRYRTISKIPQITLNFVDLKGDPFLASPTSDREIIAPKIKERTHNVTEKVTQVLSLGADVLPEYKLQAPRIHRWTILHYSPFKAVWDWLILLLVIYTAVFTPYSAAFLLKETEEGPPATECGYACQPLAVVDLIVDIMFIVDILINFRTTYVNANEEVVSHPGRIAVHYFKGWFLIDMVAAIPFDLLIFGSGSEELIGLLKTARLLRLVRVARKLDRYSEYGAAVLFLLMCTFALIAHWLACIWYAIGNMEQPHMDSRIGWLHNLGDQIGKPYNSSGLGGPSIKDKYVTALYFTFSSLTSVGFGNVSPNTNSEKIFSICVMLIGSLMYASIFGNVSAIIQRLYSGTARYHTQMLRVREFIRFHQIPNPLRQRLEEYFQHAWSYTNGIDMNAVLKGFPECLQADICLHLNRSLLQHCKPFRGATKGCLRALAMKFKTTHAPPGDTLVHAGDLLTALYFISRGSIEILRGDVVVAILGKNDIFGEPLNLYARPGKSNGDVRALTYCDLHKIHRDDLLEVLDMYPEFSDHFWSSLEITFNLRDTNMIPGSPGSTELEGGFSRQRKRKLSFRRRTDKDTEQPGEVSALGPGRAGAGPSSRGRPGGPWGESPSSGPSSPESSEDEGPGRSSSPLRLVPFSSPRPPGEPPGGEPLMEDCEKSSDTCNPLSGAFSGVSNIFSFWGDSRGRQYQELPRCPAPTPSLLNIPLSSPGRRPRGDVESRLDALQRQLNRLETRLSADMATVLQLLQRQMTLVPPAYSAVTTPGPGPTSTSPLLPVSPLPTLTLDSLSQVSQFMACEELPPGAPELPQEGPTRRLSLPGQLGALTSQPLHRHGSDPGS

Mus musculus [12] = test: Antiinflammatory activity in mouse acute cigarette smoke model assessed as inhibition of neutrophil influx to broncho-alveolar lavage fluid at 10 ug/kg, administered intratracheally 30 mins prior to first cigarette smoke challenge every day for 4 days measured after 24 hrs post last cigarette smoke challenge relative to control; settings: inhaled or nasal
Mus musculus [13] = test: Antiinflammatory activity in mouse acute cigarette smoke model assessed as inhibition of neutrophil influx to broncho-alveolar lavage fluid at 30 ug/kg, administered intratracheally 30 mins prior to first cigarette smoke challenge every day for 4 days measured after 24 hrs post last cigarette smoke challenge relative to control; settings: inhaled or nasal
Mus musculus [14] = test: Antiinflammatory activity in mouse acute cigarette smoke model assessed as inhibition of neutrophil influx to broncho-alveolar lavage fluid at 100 ug/kg, administered intratracheally 30 mins prior to first cigarette smoke challenge every day for 4 days measured after 24 hrs post last cigarette smoke challenge relative to control; settings: inhaled or nasal
Mus musculus [15] = test: Antiinflammatory activity in mouse acute cigarette smoke model assessed as inhibition of neutrophil influx to broncho-alveolar lavage fluid at 300 ug/kg, administered intratracheally 30 mins prior to first cigarette smoke challenge every day for 4 days measured after 24 hrs post last cigarette smoke challenge relative to control; settings: inhaled or nasal

**Q.** With Cc1cc(C)c(S(=O)(=O)N[C@@H](C)CNc2cccc3c2cnn3-c2ccc(F)cc2)c(C)c1 as the compound, how does the logD [1] read?
**A.** 4.1

**Q.** And the IC50 (Glucocorticoid receptor)?
**A.** 0.0009 µM

**Q.** What about the IC50 (Androgen receptor) of the same compound?
**A.** > 1 µM

**Q.** And the solubility thermodynamic at 24 h [2]?
**A.** < 0.2 µM

**Q.** What about the Fu (Plasma) of the same compound?
**A.** < 0.003%

**Q.** What about the CLH (Hepatocyte [3]) of the same compound?
**A.** 13 µL/min

**Q.** What about the CLH (Hepatocyte [4]) of the same compound?
**A.** 18 µL/min

**Q.** And the IC50 (Cytochrome P450 2D6)?
**A.** > 20 µM

**Q.** What about the IC50 (Cytochrome P450 1A2) of the same compound?
**A.** > 20 µM

**Q.** And the IC50 (Cytochrome P450 2C19)?
**A.** > 20 µM

**Q.** And the IC50 (Cytochrome P450 3A4)?
**A.** 10 µM

**Q.** And the IC50 (Cytochrome P450 2C9)?
**A.** 7.9 µM

**Q.** What about the Drug uptake (Lung) of the same compound?
**A.** 50%

**Q.** And the inhibition in vivo at 0.01 mg/kg (Rattus norvegicus [5])?
**A.** 37%

**Q.** What about the inhibition in vivo at 0.03 mg/kg (Rattus norvegicus [6]) of the same compound?
**A.** 90%

**Q.** And the inhibition in vivo at 0.1 mg/kg (Rattus norvegicus [7])?
**A.** 85%

**Q.** What about the inhibition in vivo at 0.01 mg/kg (Rattus norvegicus [8]) of the same compound?
**A.** 32%

**Q.** And the inhibition in vivo at 0.03 mg/kg (Rattus norvegicus [9])?
**A.** 42%

**Q.** What about the inhibition in vivo at 0.1 mg/kg (Rattus norvegicus [10]) of the same compound?
**A.** 56%

**Q.** And the solubility thermodynamic at 24 h [11]?
**A.** < 0.43 µM

**Q.** What about the inhibition at 50 µM (hERG (KCNH2)) of the same compound?
**A.** < 25%

**Q.** What about the inhibition in vivo at 0.01 mg/kg (Mus musculus [12]) of the same compound?
**A.** 0%

**Q.** What about the inhibition in vivo at 0.03 mg/kg (Mus musculus [13]) of the same compound?
**A.** 36%

**Q.** And the inhibition in vivo at 0.1 mg/kg (Mus musculus [14])?
**A.** 23%

**Q.** With CCCC1O[C@@H]2C[C@H]3[C@@H]4CCC5=CC(=O)C=C[C@]5(C)[C@H]4[C@@H](O)C[C@]3(C)[C@]2(C(=O)CO)O1 (stereo not given in full) [BUDESONIDE] as the compound, how does the inhibition in vivo at 0.3 mg/kg (Mus musculus [15]) read?
**A.** 38%
